Data on one molecule can be found in patent US20100204258A1, “METHODS AND COMPOSITIONS FOR MODULATING INSULIN SECRETION AND GLUCOSE METABOLISM” (The Trustees of Columbia University in the City of New York, priority 2007, published 2010).

“Also recorded” adds a separate entry of the source.

For one assay, the system named is diabetic Lewis rats. Description: IPGTT in streptozotocin-induced diabetic Lewis rats. Type of assay: in vivo, rat. On the procedure: Experimental animals. All animal studies were reviewed and approved by the Institutional Animal Care and Use Committee (IACUC) at Columbia University's Medical School. All experiments were performed in accordance with the IACUC approved procedures. Normal male Lewis rats (100-400 grams) were obtained from Taconic (Taconic Inc., Germantown, N.Y.) and were housed under conditions of controlled humidity (55±5%), temperature (23±1° C.), and lighting (light on: 06.00-18.00 hours) with free access to standard laboratory rat chow and water. Rats were handled daily to minimize nonspecific stress for more than 7 days before the experiments began. In most experiments, it was necessary to measure blood glucose in fasting animals. For these groups, food was removed at the beginning of the light cycle, 6 hours before glucose levels were measured. Diabetes mellitus was induced by intraperitoneal injection of streptozotocin (Sigma Chemical Co., St. Louis, Mo.) (25 to 50 mg/kg) to animals (100 to 150 grams) that had been fasted 4 hours to enhance the effectiveness of STZ treatment.
The STZ solution was prepared fresh by dissolving it in 0.1 M citrate buffer (pH 5.5) and terminally sterile filtered. Control Lewis age and weight matched rats received a 0.5 ml/kg citrate vehicle alone via intraperitoneal injection. Sixty minutes prior to intraperitoneal glucose tolerance testing (IPGTT), anesthesia of male Lewis rats was induced with isoflurane (3-4% in oxygen) and maintained with 1-2% isoflurane in oxygen. Anaesthetized rats were administered TBZ at the indicated dose by intravenous (i.v.) injection using the penile vein. TBZ was dissolved in neat sterile dimethylsulfoxide (DMSO) and diluted (always more than 10 fold) in sterile saline. Rats received injections of vehicle alone (10% DMSO in saline) or reserpine (in saline). Animals recovered fully before receiving IPGTT.
Blood glucose, insulin, glucagon and intraperitoneal glucose tolerance tests measurements. Blood samples were collected from a superficial blood vessel in the tails of the rats following 6 hours of fasting between 12:00 noon and 2:00 p.m. The fasting blood glucose (BG) levels of the rats were measured using an Accu-Check blood glucose monitoring system (Roche Diagnostics, Sommerville, N.J.). […] BG concentrations were measured immediately on these samples and the remainder processed.
Plasma was immediately separated by centrifugation at 3000×g for 15 minutes and then stored at −20° C. until analysis. […] The area under the IPGTT glucose concentration×time curve (AUCIPGTT) was calculated by the trapezoidal rule. The area under the insulin or glucagon concentration×time curve (AUC INS or AUC GCG) was calculated in a similar manner.

Assay [1] concerns dopamine content of brain and pancreas tissue. Description: Dopamine content of brain and pancreas extracts by ELISA after i.v. TBZ. It counts as in vivo, rat. On the procedure:
Dopamine measurements. Anaesthetized rats received an intravenous injection of TBZ and were sacrificed one hour later. Euthanasia was performed by exsanguination of the anesthetized animal. Brain and pancreas were harvested as quickly as possible and frozen at −80° C. until use. Frozen tissue was pulverized in a liquid nitrogen cooled mortar and extracted in 0.01 N HCl. The tissue extract was centrifuged at 10,000×g at 4° C. to remove debris and the total protein was estimated by reading the absorbance at 280 nm. The concentration of dopamine in the extract was estimated using an ELISA kit from Rocky Mountain Diagnostics (Colorado Springs, Colo.) per the manufacturer's instructions and normalized to the extract protein concentration.
For orientation: In an ELISA, binding on a coated surface is turned into a signal by an enzyme label.

In assay [2] the test system is plasma insulin and glucagon. In words: Plasma insulin and glucagon (ELISA) during IPGTT. Type of assay: in vivo, rat. As for the experimental part: Blood glucose, insulin, glucagon and intraperitoneal glucose tolerance tests measurements. Blood samples were collected from a superficial blood vessel in the tails of the rats following 6 hours of fasting between 12:00 noon and 2:00 p.m. The fasting blood glucose (BG) levels of the rats were measured using an Accu-Check blood glucose monitoring system (Roche Diagnostics, Sommerville, N.J.). Intraperitoneal glucose tolerance tests (IPGTT) were performed in 6 hour fasting un-anaesthetized animals. Briefly, after baseline BG measurements, animals received an intraperitoneal (i.p.) injection of 1 gram glucose/kilogram body weight. To minimize stress during the procedure, rats were handled by the same operator during acclimatization and later during weighing and IPGTT. Blood samples (approximately 30 μl) were collected at baseline and then again 15, 30, 60, 90, and 120 minutes following i.p. glucose administration. BG concentrations were measured immediately on these samples and the remainder processed.
Plasma was immediately separated by centrifugation at 3000×g for 15 minutes and then stored at −20° C. until analysis. Insulin and glucagon concentration measurements in rat plasma were performed by ELISA as per the manufacturer's instructions using kits from Linco Research Inc. (St. Charles, Mo.) and Alpco Diagnostics (Salem, N.H.), respectively. To validate the test, saline injections were performed by the same method. […] The area under the IPGTT glucose concentration×time curve (AUCIPGTT) was calculated by the trapezoidal rule. The area under the insulin or glucagon concentration×time curve (AUC INS or AUC GCG) was calculated in a similar manner.

The next assay has as its system human islets. In words: Glucose-stimulated insulin secretion of purified human cadaveric islets ex vivo. Type of assay: cell-based. The following applies: absence of high glucose stimulation; data not shown. On the procedure:
Human islet tissue and glucose-stimulated insulin secretion. The islet tissue used in these studies was obtained with institutional review board approval. Pancreas digestion and islet isolation were performed using minor modifications of the Edmonton purification protocol. (Shapiro, […] al. “Islet […] in seven patients with type I diabetes mellitus using a glucocortoid-free immunosuppressive regimen.” New England Journal of Medicine 343(4):230-8, (2000)) The determination of islet cell mass, viability, and purity were also performed. Purified islets were cultured in CMRL 1066 culture media with 10% fetal bovine serum at 37° C. in humidified air (5% CO2) for 18 to 24 hours. The human islet insulin secretory response was performed according to a procedure described by the Edmonton group. (Id.) Briefly, after an overnight culture, islets were incubated with either low or high concentrations of glucose for 2 hours at 37° C. and 5% CO2. The supernatant was collected for insulin measurement. Insulin concentrations in these experiments were analyzed with a human insulin enzyme-linked immunosorbent assay (ELISA) kit (ALPCO Insulin ELISA kit, Windham, N.H.). In some experiments TBZ, DTBZ or epinephrine was added to the cultures before glucose stimulation.

Setting [3] is: 1.6 μg/gm body weight i.v., one hour later (FIG. 3).
[4] abbreviates: one hour after injection of 10 μg/gm body weight.

Turning to `COc1cc2c(cc1OC)C1CC(=O)C(CC(C)C)CN1CC2` (centres unmarked) [TBZ, tetrabenazine], the “blood glucose excursion during IPGTT” value with diabetic Lewis rats (STZ-diabetic Lewis rats, 1.6 μg/gm, vs vehicle) was “reduces the blood glucose excursion”. For the same molecule, the “blood glucose levels before i.p. glucose challenge” value with diabetic Lewis rats (STZ-diabetic rats, around sixty minutes following i.v. injection) is listed as “returned to control or near normal levels”. Besides, the “area under the curve in the IPGTT” value in the assay with diabetic Lewis rats (STZ-diabetic rats, following glucose challenge) is “smaller area under the curve”. The glucose tolerance-enhancing effects entry with diabetic Lewis rats (animals with initial untreated AUC IPGTT>50,000 minutes×mg/dl, data not shown) is given as “not observed”. In assay [1] (setting [3]), the “dopamine content of brain tissue” value is “reduces the dopamine content” and the “dopamine content of pancreas tissue” value is listed as “reduces the dopamine content”. In assay [1] (setting [4]), the “dopamine content of brain” value is reported as “significantly depleted” and the “dopamine content of pancreas” value is “significantly depleted”. Further, the “plasma insulin levels during IPGTT” value in assay [2] (TBZ 1.6 μg/gm and glucose challenge, vs vehicle treated controls) is given as “alters; also recorded: greater”. For the same molecule, the “AUC INS with treatment relative to AUC INS of control animals” value in assay [2] (four out of five experiments) is given as “greater than two fold”. Besides, in assay [2] (i.v. TBZ 1.6 μg/gm and glucose challenge, relative to controls), the “plasma glucagon levels during IPGTT” value is reported as “alters; also recorded: generally lower”. Also, the “baseline plasma concentrations of glucagon” value in assay [2] (prior to glucose challenge, not statistically significant) is on record as “sometimes lower than controls”. In addition, in assay [2] (three of five experiments), the “AUC GCG, less than that of control animals” value was 75%-85%. The “insulin secretion of human islets” value in the assay on human islets is on record as “not observed”.
